Source: patent US9957271B2, “Substituted bicyclic aza-heterocycles and analogues as sirtuin modulators” (GlaxoSmithKline, LLC, priority 2012, dated 2018)

Columns and labels:
SIRT1 [1] = target: T1, SIRT1 (Homo sapiens, UniProt Q96EB6); assay: TAMRA based mass spectrometry assay of SIRT1 activity; assay type: biochemical; settings: for Emax: read-out: TAMRA % Fold Act
T1 sequence (Q96EB6 1-747): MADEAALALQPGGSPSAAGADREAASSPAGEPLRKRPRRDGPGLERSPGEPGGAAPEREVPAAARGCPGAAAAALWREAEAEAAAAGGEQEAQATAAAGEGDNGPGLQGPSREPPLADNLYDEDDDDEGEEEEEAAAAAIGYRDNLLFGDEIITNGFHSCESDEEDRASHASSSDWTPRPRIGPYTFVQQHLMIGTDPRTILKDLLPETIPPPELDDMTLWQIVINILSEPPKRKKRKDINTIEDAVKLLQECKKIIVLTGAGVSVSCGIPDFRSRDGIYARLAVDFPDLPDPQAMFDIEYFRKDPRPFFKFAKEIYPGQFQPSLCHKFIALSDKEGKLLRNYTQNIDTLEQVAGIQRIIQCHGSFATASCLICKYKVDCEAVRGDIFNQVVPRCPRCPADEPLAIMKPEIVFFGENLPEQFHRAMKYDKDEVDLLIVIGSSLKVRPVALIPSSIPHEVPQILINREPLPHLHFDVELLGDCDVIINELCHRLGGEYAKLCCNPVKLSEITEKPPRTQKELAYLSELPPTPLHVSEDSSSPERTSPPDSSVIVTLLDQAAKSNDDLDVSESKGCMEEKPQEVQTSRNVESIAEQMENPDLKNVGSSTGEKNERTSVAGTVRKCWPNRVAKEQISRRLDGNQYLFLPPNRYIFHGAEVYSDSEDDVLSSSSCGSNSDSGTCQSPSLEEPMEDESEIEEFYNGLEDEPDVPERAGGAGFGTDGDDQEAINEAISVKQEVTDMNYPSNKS
How it was run: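 Deacetylation of a biotinylated, TAMRA-tagged p53-based peptide (0.5 μM) by 10 nM His-tagged SIRT1 with 120 μM βNAD+, 25 °C for 25 min, pH 8 Tris-acetate buffer, across a compound concentration range. Quenched by formic acid and read by mass spec as product peptide or OAADPR; activity relative to DMSO reactions, nicotinamide defining maximal inhibition.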

SIRT1 [2] = target: T1, SIRT1; assay: Trp mass spectrometry assay of SIRT1 activity; assay type: biochemical; settings: for Emax: read-out: Trp % Fold Act
How it was run: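 Activation readout: EC1.5 (concentration raising activity 50% over control) and percent maximum activation, from mass-spec quantitation of OAADPR or deacetylated Trp peptide. Reaction: 0.5 μM acetylated Trp peptide, 120 μM βNAD+, 10 nM bacterially expressed N-His SIRT1, pH 7.5 HEPES buffer with […], 25 min at 25° C.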

[3] = TAMRA assay, concentration giving 150% activation of SIRT1
[4] = TAMRA assay, percent maximum fold activation
[5] = Trp assay, concentration giving 150% activation of SIRT1
[6] = Trp assay, percent maximum fold activation
[7] = concentration of test compound giving 150% activation of SIRT1, TAMRA peptide substrate
[8] = percent maximum fold activation of SIRT1, TAMRA peptide substrate
[9] = concentration of test compound giving 150% activation of SIRT1, Trp peptide substrate
[10] = percent maximum fold activation of SIRT1, Trp peptide substrate
[11] = TAMRA peptide substrate, concentration giving 150% activation of SIRT1
[12] = TAMRA peptide substrate, percent maximum fold activation
[13] = Trp peptide substrate, concentration giving 150% activation of SIRT1
[14] = Trp peptide substrate, percent maximum fold activation

`Cc1c(-c2ccccc2C(F)(F)F)nn2c(C(=O)Nc3cccc(N4CCOCC4)n3)cnc2c1C` [Compound 227] was tested, and the “TAMRA EC1.5 (μM)” value (SIRT1 [1]; [3]) was “A (EC1.5<1 μM)”, the Emax (SIRT1 [1]; [4]) was at least 350% and the “Trp EC1.5 (μM)” value (SIRT1 [2]; [5]) was “B (EC1.5 1-25 μM)”. For the same molecule, the Emax (SIRT1 [2]; [6]) was at least 350%.
For `Cc1ccc(NC(=O)c2cnc3ccc(-c4ccccc4C(F)(F)F)nn23)cn1` [Compound 98], the “TAMRA EC1.5 (μM)” value (SIRT1 [1]; [7]) was “B (EC1.5 1-25 μM)”, the Emax (SIRT1 [1]; [8]) was at least 350% and the “Trp EC1.5 (μM)” value (SIRT1 [2]; [9]) was “B (EC1.5 1-25 μM)”. It also gave an Emax (SIRT1 [2]; [10]) of at least 350%.
With `COCCOc1cc(NC(=O)c2cnc3ccc(-c4ccccc4C(F)(F)F)nn23)ncn1` [Compound 663] the “TAMRA EC1.5 (μM)” value (SIRT1 [1]; [3]) was “A (EC1.5<1 μM)”, the Emax (SIRT1 [1]; [4]) was at least 350% and the “Trp EC1.5 (μM)” value (SIRT1 [2]; [5]) was “B (EC1.5 1-25 μM)”. It also gave an Emax (SIRT1 [2]; [6]) of under 350%.
`CCOc1cc(NC(=O)c2c(C)nn3ccc(-c4ccccc4C(F)(F)F)nc23)ccn1` [Compound 707] was tested, and the “TAMRA EC1.5 (μM)” value (SIRT1 [1]; [3]) was “A (EC1.5<1 μM)”, the Emax (SIRT1 [1]; [4]) was at least 350% and the “Trp EC1.5 (μM)” value (SIRT1 [2]; [5]) was “A (EC1.5<1 μM)”. For the same molecule, the Emax (SIRT1 [2]; [6]) was at least 350%.
With `Cc1nc2ccc(-c3cccc(OC[C@H](O)CO)c3)nn2c1C(=O)Nc1ccncn1` [Compound 594] the “TAMRA EC1.5” value (SIRT1 [1]; [11]) was “B (EC1.5 1-25 μM)”, the Emax (SIRT1 [1]; [12]) was under 350% and the “Trp EC1.5” value (SIRT1 [2]; [13]) was “B (EC1.5 1-25 μM)”. The Emax (SIRT1 [2]; [14]) was under 350%.
With `Cc1nccc(C(=O)Nc2cnc3ccc(-c4ccccc4C(F)(F)F)nn23)n1` [Compound 389] the “TAMRA EC1.5 (μM)” value (SIRT1 [1]; [3]) was “A (EC1.5<1 μM)”, the Emax (SIRT1 [1]; [4]) was at least 350% and the “Trp EC1.5 (μM)” value (SIRT1 [2]; [5]) was “B (EC1.5 1-25 μM)”. For the same molecule, the Emax (SIRT1 [2]; [6]) was under 350%.
In the case of `COc1cccc(NC(=O)c2cnc3ccc(-c4ccccc4F)nn23)n1` [Compound 244], the “TAMRA EC1.5 (μM)” value (SIRT1 [1]; [3]) is reported as “B (EC1.5 1-25 μM)”, the Emax (SIRT1 [1]; [4]) is reported as under 350% and the “Trp EC1.5 (μM)” value (SIRT1 [2]; [5]) is reported as “A (EC1.5<1 μM)”. The Emax (SIRT1 [2]; [6]) was under 350%.
`O=C(Nc1nc(CN2CCOCC2)cs1)c1cnc2ccc(-c3ccc(F)c(F)c3)nn12` [Compound 44] was tested, and the “TAMRA EC1.5 (μM)” value (SIRT1 [1]; [7]) was “B (EC1.5 1-25 μM)”, the Emax (SIRT1 [1]; [8]) was under 350% and the “Trp EC1.5 (μM)” value (SIRT1 [2]; [9]) was “B (EC1.5 1-25 μM)”. For the same molecule, the Emax (SIRT1 [2]; [10]) was under 350%.
For `O=C(Nc1cnc2ccc(-c3ccccc3OC(F)(F)F)nn12)c1cccc(N2CCOCC2)n1` [Compound 321], the “TAMRA EC1.5 (μM)” value (SIRT1 [1]; [3]) was “A (EC1.5<1 μM)”, the Emax (SIRT1 [1]; [4]) was at least 350% and the “Trp EC1.5 (μM)” value (SIRT1 [2]; [5]) was “A (EC1.5<1 μM)”. It also gave an Emax (SIRT1 [2]; [6]) of at least 350%.
`Cc1cnc(NC(=O)c2c(C)nc3ccc(-c4cccc(OC[C@H](O)CO)c4)nn23)s1` [Compound 823] was tested, and the “TAMRA EC1.5 (μM)” value (SIRT1 [1]; [3]) was “A (EC1.5<1 μM)”, the Emax (SIRT1 [1]; [4]) was under 350% and the “Trp EC1.5 (μM)” value (SIRT1 [2]; [5]) was “A (EC1.5<1 μM)”. The Emax (SIRT1 [2]; [6]) was under 350%.
In the case of `COc1nccc(NC(=O)c2cnc3ccc(-c4ccccc4OC(F)(F)F)nn23)n1` [Compound 430], the “TAMRA EC1.5” value (SIRT1 [1]; [11]) is reported as “A (EC1.5<1 μM)”, the Emax (SIRT1 [1]; [12]) is reported as at least 350% and the “Trp EC1.5” value (SIRT1 [2]; [13]) is reported as “A (EC1.5<1 μM)”. It also gave an Emax (SIRT1 [2]; [14]) of at least 350%.
`Cc1cnc(C(=O)Nc2cnn3ccc(-c4ccccc4OC(F)(F)F)nc23)cn1` [Compound 734] was tested, and the “TAMRA EC1.5 (μM)” value (SIRT1 [1]; [3]) was “B (EC1.5 1-25 μM)”, the Emax (SIRT1 [1]; [4]) was at least 350% and the “Trp EC1.5 (μM)” value (SIRT1 [2]; [5]) was “C (EC1.5>25 μM)”. It also gave an Emax (SIRT1 [2]; [6]) of under 350%.
For `N#Cc1ccccc1-c1ccc2ncc(NC(=O)c3cccc(N4CCC4)n3)n2n1` [Compound 338], the “TAMRA EC1.5 (μM)” value (SIRT1 [1]; [3]) was “A (EC1.5<1 μM)”, the Emax (SIRT1 [1]; [4]) was at least 350% and the “Trp EC1.5 (μM)” value (SIRT1 [2]; [5]) was “A (EC1.5<1 μM)”. It also gave an Emax (SIRT1 [2]; [6]) of under 350%.
For `O=C(Nc1cnn2ccc(-c3ccccc3C(F)(F)F)nc12)c1cscn1` [Compound 802], the “TAMRA EC1.5 (μM)” value (SIRT1 [1]; [3]) was “B (EC1.5 1-25 μM)”, the Emax (SIRT1 [1]; [4]) was at least 350% and the “Trp EC1.5 (μM)” value (SIRT1 [2]; [5]) was “C (EC1.5>25 μM)”. It also gave an Emax (SIRT1 [2]; [6]) of under 350%.
With `Cc1cc2ncc(NC(=O)c3cccc(OCC(O)CO)n3)n2nc1-c1ccccc1C(F)(F)F` (centres unmarked) [Compound 449] the “TAMRA EC1.5” value (SIRT1 [1]; [11]) was “A (EC1.5<1 μM)”, the Emax (SIRT1 [1]; [12]) was at least 350% and the “Trp EC1.5” value (SIRT1 [2]; [13]) was “A (EC1.5<1 μM)”. It also gave an Emax (SIRT1 [2]; [14]) of at least 350%.
`Cn1nccc1C(=O)Nc1cnc2ccc(-c3ccccc3C(F)(F)F)nn12` [Compound 93] was tested, and the “TAMRA EC1.5 (μM)” value (SIRT1 [1]; [7]) was “C (EC1.5>25 μM)”, the Emax (SIRT1 [1]; [8]) was under 350% and the “Trp EC1.5 (μM)” value (SIRT1 [2]; [9]) was “C (EC1.5>25 μM)”. For the same molecule, the Emax (SIRT1 [2]; [10]) was under 350%.
For `Cc1nc2ccc(-c3ccccc3OC(F)(F)F)nn2c1C(=O)Nc1ccncc1F` [Compound 466], the “TAMRA EC1.5” value (SIRT1 [1]; [11]) was “A (EC1.5<1 μM)”, the Emax (SIRT1 [1]; [12]) was at least 350% and the “Trp EC1.5” value (SIRT1 [2]; [13]) was “A (EC1.5<1 μM)”. It also gave an Emax (SIRT1 [2]; [14]) of at least 350%.
